Assay results published in US7238469B2, “Carbon monoxide improves outcomes in tissue and organ transplants and suppresses apoptosis” (priority 2001, dated 2007).

Columns and labels:
VASP = VASP phosphorylation by Western blot in ECs; type: cell-based
Experimental: Cell extracts were prepared, electrophoresed under denaturing conditions (10–12.5% polyacrylamide gels), and transferred into polyvinyldifluoridine membranes (Immobilon P™; Millipore). HO-1 was detected using a rabbit anti-human HO-1 polyclonal antibody (StressGen Biotechnologies). Vasodilatator-stimulated phosphoprotein (VASP) was detected using a rabbit anti-human VASP polyclonal antibody (Calbiochem-Novabiochem). […] Primary antibodies were detected using horseradish peroxidase-conjugated donkey anti-rabbit or goat anti-mouse IgG secondary antibodies (Pierce Chemical Co.). Peroxidase was visualized using the enhanced chemiluminescence assay (Amersham Pharmacia Biotech) according to the manufacturer's instructions, and stored in the form of photoradiographs (Biomax™ MS; Eastman Kodak Co.). […] The amount of phosphorylated ERK, JNK, and p38 MAPK was quantified using ImageQuant® software (Molecular Dynamics). […] Phosphorylated ERK, JNK, and p38 MAPK were normalized to the total amount of total ERK, JNK, and p38 MAPK detected in the same membrane.
Most biological functions attributed to CO have been linked to its ability to bind guanylcyclase and increase the generation of cGMP. […] (B) Activation of guanylcyclase was monitored in BAECs by analyzing the phosphorylation of VASP. […] (D) Phosphorylation of VASP was analyzed by Western blot as described above in B. N.T., nontreated. […]

[1] = system: mouse hearts transplanted into rats; test: Mouse-to-rat heterotopic cardiac transplant, graft survival; type: in vivo, BALB/c mouse hearts, Lewis rats; conditions: for graft outcome: mouse hearts into rats, FePPIX with CVF plus CsA, CO 400 ppm in SnPPIX-treated rats
From the text: BALB/c mouse hearts were used as donor organs for transplantation into inbred adult male Lewis rats (Harlan Sprague-Dawley, Indianapolis, Ind.). Animals were housed in accordance with guidelines from the American Association for Laboratory Animal Care, and research protocols were approved by the Institutional Animal Care and Use Committees of the Beth Israel Deaconess Medical Center.
Animals were anesthetized by a combination of methoxyflurane (Pitman-Moore, Mundelain, Ill.) inhalation and pentobarbital (Abbott, North Chicago, Ill.) at a dose of 30–50 mg/kg i.p. during all procedures. Heterotopic cardiac transplants were performed as described previously (Berk et al., Physiol Rev. 8:999–1030, 2001; Petkova et al., J Biol. Chem. 276:7932–7936, 2001). Graft survival was assessed daily by palpation. Rejection was diagnosed by cessation of ventricular contractions and confirmed by histologic examination.
Cobra venom factor (CVF; which blocks complement activation) (Quidel, San Diego, Calif.) was administered i.p. on day −1 (60 U/kg) and on day 0 (20 U/kg) with respect to the day of transplantation (day 0). Cyclosporin A (CsA; Novartis, Basel, Switzerland), which blocks T cell activation, was administered i.m. (15 mg/kg) starting at day 0 and daily thereafter until the end of each experiment. Tin protoporphyrin (SnPPIX), cobalt protoporphyrin (CoP-PIX), and iron protoporphyrin (FePPIX; Porphyrin Products, Logan, Utah) were diluted in 100 mM NaOH to a stock solution of 50 mM and kept at −70° C. until used. Light exposure was limited as much as possible. Both SnPPIX and FePPIX were administered i.p. (30 μM/kg) in PBS. FePPIX and SnPPIX were administered to the donor at days −2 and −1 (30 μM/kg) and to the recipient at the time of transplantation (day 0) and daily thereafter (30 μM/kg).
Briefly, CO at a concentration of 1% (10,000 parts per million; ppm) in compressed air was mixed with balanced air (21% oxygen) in a stainless steel mixing cylinder before entering the exposure chamber. CO concentrations were controlled by varying the flow rates of CO in a mixing cylinder before delivery to the chamber. Because the flow rate is primarily determined by the O2 flow, only the CO flow was changed to deliver the final concentration to the exposure chamber. A CO analyzer (Interscan Corporation, Chatsworth, Calif.) was used to measure CO levels continuously in the chamber. Graft donors were placed in the CO exposure chamber 2 days before transplantation. Graft recipients were placed in the exposure chamber immediately following transplantation and were kept in the exposure chamber for 14 (n=3) or 16 (n=3) days. CO concentration was maintained between 250 and 400 ppm at all times. Animals were removed daily from the chamber to assess graft survival and to administer CsA, SnPPIX, or FePPIX, as described above.

SMILES | VASP phosphorylation (VASP) | graft outcome [1] | other results
Nc1nc2c(nc(Br)n2[C@@H]2O[C@@H]3COP(=O)(O)O[C@H]3[C@H]2O)c(=O)[nH]1 [8-Br-cGMP, 8-bromoguanosine-3′-5′-cyclic-monophosphate] | induce VASP phosphorylation |  | 
[C-]#[O+] [CO, carbon monoxide] |  | survived long term | dose of CO used as fraction of the lethal dose ([1]; 400–500 ppm): approximately one-twentieth; untoward reactions ([1]; rats and mice exposed to CO): did not exhibit untoward reactions; time grafts continued to function ([1]; rats treated with SnPPIX, CO 400 ppm discontinued 14 or 16 days after transplantation): > 50 days
C=CC1=C(C)c2cc3[n-]c(cc4[n-]c(cc5nc(cc1n2)C(C)=C5C=C)c(C)c4CCC(=O)O)c(CCC(=O)O)c3C.[Fe+2] [FePPIX, iron protoporphyrin] |  | did not lead to graft rejection | 
O=c1onc2cnc3ccccc3n12 [ODQ, 1H[1,2,4]oxadiazolo[4,3-α]quinoxalin-1] | prevent constitutive VASP phosphorylation |  | 
C=Cc1c2[n-]c(c1C)/C=c1\[n-]/c(c(C)c1C=C)=C\c1[n-]c(c(CCC(=O)O)c1C)C=c1[n-]/c(c(C)c1CCC(=O)O)=C\2.[Sn+4] [SnPPIX, tin protoporphyrin IX] |  |  | time to graft rejection after transplantation ([1]; SnPPIX to donor and recipient, despite CVF plus CsA): 3 to 7 days
